Measurements reported in US20200308622A1, “Phage-Mediated Molecular Detection Methods and Related Aspects” (United States of America as represented by the Secretary of …, priority 2017, published 2020).

Key:
MRSA strain SA-1012.COI = test: PMMD (phage K RT-qPCR) antibiotic sensitivity assay, MRSA; type: cell-based, Staphylococcus aureus; settings: cefoxitin 4 μg/ml, with vs without fox, phage K gp125 RNA qPCR
Protocol: (§1) Staphylococcus aureus (S. aureus) bacterial cultures were grown for one hour in LB-Lennox (10 g/l Tripone, 5 g/l yeast extract and 5 g/l NaCl) media at 37° C. with strong aeration (225 rpm shaking). For antibiotic sensitivity assays the cultures were grown for one or three hours, as indicated, and cefoxitin (Sigma-Aldrich) was added at a final concentration of 4 μg/ml using a 1,000× stock in water.
(§2) The reactions were performed by mixing 50 μl of S. aureus bacterial cultures (˜2×10^9 cfu/ml) and 50 μl of a phage K lysate ( about 5×10^8 pfu/ml) or 1 μl of CsCl gradient purified phage K (about 1×10^10 pfu/ml). The mixtures were incubated on ice for 3-4 minutes and the infections were allowed to proceed for 10 minutes, unless indicated otherwise, at 37° C. with shaking (400 rpm). Five minutes prior to the end of the incubation, lysostaphin (Sigma-Aldrich) w as added from a 20× stock (2 mg/ml).
(§3) Single-step fluorescent quantitative or real-time PCR (qPCR) was done with Luna one-step RT-qPCR kit (NEB) using low profile clear 0.2 ml PCR tubes and optical ultraclear flat caps (BioRad). The reactions were run in a CFX96 real-time PCR detection system (BioRad) with CFX Manager 3. Quantification cycle values (Cqs) were auto calculated by the software, and ranged front about […]. […] 10 minutes/35× (95° C. 10 seconds, 60° C. 30 seconds, plate read). […]

MSSA strain RN4220 = test: PMMD (phage K RT-qPCR) antibiotic sensitivity assay, MSSA; type: cell-based, Staphylococcus aureus; settings: cefoxitin 4 μg/ml, with vs without fox, phage K gp125 RNA qPCR
Protocol: as §1, §2, §3

## CO[C@@]1(NC(=O)Cc2cccs2)C(=O)N2C(C(=O)O)=C(COC(N)=O)CS[C@@H]21 [fox, cefoxitin]
MRSA strain SA-1012.COI; one hour of incubation
  Cq increase in the presence of fox: about 1.0
MRSA strain SA-1012.COI; three hours of incubation
  Cq increase in the presence of fox: about 0.0
MSSA strain RN4220; one hour of incubation
  increase of Cq values on addition of fox in the media: about 1.5
MSSA strain RN4220; three hours of incubation
  increase of Cq values on addition of fox in the media: about 11.5
